Test results as given in US20220370396A1, “METHODS FOR MODULATING CONDITIONS OF THE EYE USING NOVEL LATANOPROST COMPOUND OPHTHALMIC COMPOSITIONS” (Somerset Therapeutics LLC, priority 2021, published 2022).

Test: Comparative stability testing of latanoprost formulations under refrigerated, room temperature and accelerated conditions
Type: physicochemical
Procedure: Formulations prepared according to the invention as described in Example 1 were tested for stability under refrigerated conditions ((2-8° C.), […] (25° C./60% relative humidity) and accelerated conditions (40° C./75% relative humidity) to determine stability of such formulations. The stability data of the composition provided in Table 1 of Example 1 was also compared with Reference Product (XALATAN®). Stability results are provided in Table 3.
The stability data for the composition of Table 1, Example 1 (comprising the PCCC polyoxyl 40 hydrogenated castor oil), was compared to the composition of Table 2, Example 2, comprising the polysorbate-80.

Effect of surfactant on stabilization of latanoprost formulations: marginal effect on stabilization
Substance: polysorbate-80
